The results in this text go back to patent US8729082B2, “Substituted imidazoquinoxalines” (Bayer Intellectual Property GmbH, priority 2009, dated 2014).

Each structure is given as a SMILES string.

In this assay the target is T1, human kinase Mps-1 (Homo sapiens, UniProt P33981).
T1 construct: N-terminally GST-tagged human full length recombinant Mps-1 kinase; purchased Invitrogen, Karslruhe, Germany PV4071
T1 sequence (P33981 1-857): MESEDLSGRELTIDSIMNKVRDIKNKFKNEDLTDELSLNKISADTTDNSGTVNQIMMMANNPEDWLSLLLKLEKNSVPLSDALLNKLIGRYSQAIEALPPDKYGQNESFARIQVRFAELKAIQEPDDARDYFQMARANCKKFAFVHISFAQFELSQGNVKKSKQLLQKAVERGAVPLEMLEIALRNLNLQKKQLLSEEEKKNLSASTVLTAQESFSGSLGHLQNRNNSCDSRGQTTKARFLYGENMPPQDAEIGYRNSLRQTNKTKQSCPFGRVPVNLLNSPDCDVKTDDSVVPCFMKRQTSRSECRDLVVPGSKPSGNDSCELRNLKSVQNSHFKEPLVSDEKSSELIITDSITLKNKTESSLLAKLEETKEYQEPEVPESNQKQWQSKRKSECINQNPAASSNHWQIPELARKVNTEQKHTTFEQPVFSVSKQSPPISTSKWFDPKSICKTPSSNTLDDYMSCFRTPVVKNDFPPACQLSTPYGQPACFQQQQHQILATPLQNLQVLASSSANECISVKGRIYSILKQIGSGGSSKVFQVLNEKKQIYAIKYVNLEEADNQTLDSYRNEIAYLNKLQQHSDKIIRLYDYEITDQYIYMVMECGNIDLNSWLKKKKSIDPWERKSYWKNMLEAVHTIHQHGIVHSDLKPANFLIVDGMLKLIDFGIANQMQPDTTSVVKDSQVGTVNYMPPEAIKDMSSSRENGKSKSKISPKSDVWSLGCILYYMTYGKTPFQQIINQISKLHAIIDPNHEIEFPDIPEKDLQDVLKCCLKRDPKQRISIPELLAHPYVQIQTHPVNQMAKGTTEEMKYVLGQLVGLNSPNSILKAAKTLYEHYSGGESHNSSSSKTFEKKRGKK
In words: Mps-1 kinase assay (HTRF). It is filed as biochemical. The note with it: lowATP; mean; read-out: Mps1 lowATP mean IC50. In outline:
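HTRF readout: EDTA-stopped reactions incubated 1 h with europium anti-phospho(Ser/Thr) antibody and streptavidin-XLent, emission ratio 665/620 nm after 350 nm excitation. Kinase step: compound pre-bound 15 min to ~1 nM GST-Mps-1, then 60 min at 22 °C with ATP and biotin-peptide substrate; inhibition scaled between no-inhibitor (0%) and no-enzyme (100%) controls.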
Background: In TR-FRET formats the signal depends on donor and acceptor labels being close together.
Broadly, the IC50 is the concentration that inhibits the measured activity by half. For `CC(C)CNc1nc2ccccc2n2c(-c3ccc(C(=O)NCCN4CCNC4=O)cc3)cnc12` [Example 3-18, 4-{4-[(2-methylpropyl)amino]imidazo[1,2-a]quinoxalin-1-yl}-N-[2-(2-oxoimidazolidin-1-yl)ethyl]benzamide], the IC50 is 11900 nM.

Turning to `CNC(=O)CNC(=O)c1ccc(-c2cnc3c(NCC(C)C)nc4ccccc4n23)cc1` [Example 3-19, N-[2-(methylamino)-2-oxoethyl]-4-{4-[(2-methylpropyl)amino]imidazo[1,2-a]quinoxalin-1-yl}benzamide], the IC50 is 11600 nM.

As to `CC(C)CNc1nc2ccccc2n2c(-c3ccc(C(=O)NCCc4cccnc4)cc3)cnc12` [Example 3-20, 4-{4-[(2-methylpropyl)amino]imidazo[1,2-a]quinoxalin-1-yl}-N-[2-(pyridin-3-yl)ethyl]benzamide], the IC50 is 4480 nM.

For `CC(C)CNc1nc2ccccc2n2c(-c3ccc(C(=O)NC4CC4F)cc3)cnc12` (stereo not drawn) [Example 3-21, N-(2-fluorocyclopropyl)-4-{4-[(2-methylpropyl)amino]imidazo[1,2-a]quinoxalin-1-yl}benzamide], the IC50 was found to be 7.75 nM.

For the compound `CC(C)CNc1nc2ccccc2n2c(-c3ccc(C(=O)NC4(C#N)CC4)cc3)cnc12` [Example 3-22, N-(1-cyanocyclopropyl)-4-{4-[(2-methylpropyl)amino]imidazo[1,2-a]quinoxalin-1-yl}benzamide], the IC50 came to 214 nM.

Regarding `CC(C)CNc1nc2ccccc2n2c(-c3ccc(C(=O)Nc4ccn(C)n4)cc3)cnc12` [Example 3-23, 4-{4-[(2-methylpropyl)amino]imidazo[1,2-a]quinoxalin-1-yl}-N-(1-methyl-1H-pyrazol-3-yl)benzamide], the IC50 was 997 nM.

Consider `CCn1nccc1C(=O)Nc1cccc(NC(=O)c2ccc(-c3cnc4c(NCC(C)C)nc5ccccc5n34)cc2)c1` [Example 3-24, 1-ethyl-N-{3-[(4-{4-[(2-methylpropyl)amino]imidazo[1,2-a]quinoxalin-1-yl}benzoyl)amino]phenyl}-1H-pyrazole-5-carboxamide], for which the IC50 was found to be 3610 nM.

`CC(C)CNc1nc2ccccc2n2c(-c3ccc(C(=O)NC4(c5ccccn5)CC4)cc3)cnc12` [Example 3-25, 4-{4-[(2-methylpropyl)amino]imidazo[1,2-a]quinoxalin-1-yl}-N-[1-(pyridin-2-yl)cyclopropyl]benzamide]: the IC50 came to 1420 nM.

Regarding `CC(C)CNc1nc2ccccc2n2c(-c3ccc(C(=O)NCCS(N)(=O)=O)cc3)cnc12` [Example 3-26, 4-{4-[(2-methylpropyl)amino]imidazo[1,2-a]quinoxalin-1-yl}-N-(2-sulfamoylethyl)benzamide], the IC50 came out at 5860 nM.

`CC(C)CNc1nc2ccccc2n2c(-c3ccc(C(=O)Nc4cccc(NC(=O)c5ccncc5)c4)cc3)cnc12` [Example 3-27, N-{3-[(4-{4-[(2-methylpropyl)amino]imidazo[1,2-a]quinoxalin-1-yl}benzoyl)amino]phenyl}pyridine-4-carboxamide]: the IC50 was determined as 349 nM.

In the case of `CC(C)CNc1nc2ccccc2n2c(-c3ccc(C(=O)Nc4cccc(NC(=O)c5cccnc5)c4)cc3)cnc12` [Example 3-28, N-{3-[(4-{4-[(2-methylpropyl)amino]imidazo[1,2-a]quinoxalin-1-yl}benzoyl)amino]phenyl}pyridine-3-carboxamide], the IC50 was 361 nM.

For `CC(C)CNc1nc2ccccc2n2c(-c3ccc(C(=O)NC4CC4C)cc3)cnc12` (stereo not drawn) [Example 3-29, N-(2-methylcyclopropyl)-4-{4-[(2-methylpropyl)amino]imidazo[1,2-a]quinoxalin-1-yl}benzamide], the half-maximal inhibitory concentration (IC50) came out at 13.8 nM.

Regarding `CC(C)CNc1nc2ccccc2n2c(-c3ccc(C(=O)NC4(CO)CC4)cc3)cnc12` [Example 3-30, N-[1-(hydroxymethyl)cyclopropyl]-4-{4-[(2-methylpropyl)amino]imidazo[1,2-a]quinoxalin-1-yl}benzamide], the IC50 stood at 275 nM.

Turning to `CC(C)CNc1nc2ccccc2n2c(-c3ccc(C(=O)Nc4ccc(CN5CCN(C)CC5)c(C(F)(F)F)c4)cc3)cnc12` [Example 3-31, N-{4-[(4-methylpiperazin-1-yl)methyl]-3-(trifluoromethyl)phenyl}-4-{4-[(2-methylpropyl)amino]imidazo[1,2-a]quinoxalin-1-yl}benzamide], the IC50 came out at 4570 nM.

For `CC(C)CNc1nc2ccccc2n2c(-c3ccc(C(=O)NC4(C)CC4)cc3)cnc12` [Example 3-32, N-(1-methylcyclopropyl)-4-{4-[(2-methylpropyl)amino]imidazo[1,2-a]quinoxalin-1-yl}benzamide], the half-inhibitory concentration (IC50) amounted to 158 nM.
